Measured values from publication PMC7277225, “Structures of FOX-4 Cephamycinase in Complex with Transition-State Analog Inhibitors” (Biomolecules, 2020).

Assays:
[1] = target: T1, FOX-4 cephamycinase (class C β-lactamase) (Escherichia coli, UniProt Q9L387); assay: steady-state kinetics, nitrocefin hydrolysis, […] min pre-incubation; type: biochemical; settings: read-out: FOX-4 ^1 IC50
T1 construct: native FOX-4, purified from periplasmic fractions of E. coli

[2] = target: T1, FOX-4 cephamycinase (class C β-lactamase); assay: X-ray crystal structure (soak, […] Å); IC50 with purified enzyme by nitrocefin hydrolysis; type: biochemical
[3] = target: T1, FOX-4 cephamycinase (class C β-lactamase); assay: biochemical; settings: read-out: FOX-4 ^1 IC50

SMILES | IC50 [1] | other results
CO/N=C(\C(=O)NCB(O)O)c1csc(N)n1 [CTX-like] | 0.26 ± 0.02 µM | –
O=C(Cc1cccs1)N[C@@H](Cc1cccc(C(=O)O)c1)B(O)O [EC04] | 0.42 ± 0.02 µM | –
CC(C)(O/N=C(\C(=O)NCB(O)O)c1csc(N)n1)C(=O)O [LP06] | – | IC50 [2]: 0.11 ± 0.02 µM
O=C(Cc1cccs1)N[C@H](B(O)O)c1cccc(C(=O)O)c1 [SM23] | – | IC50 [3]: 0.032 ± 0.003 µM
